Experimental data as given in patent US10618918B2, “Substituted boronic acids as antimicrobials” (priority 2015, dated 2020).

Tests used:
ec308 SHV-5 = assay: Aztreonam potentiation (MPC@4), strain ec308 SHV-5; conditions: minimum BLI concentration inhibiting growth with aztreonam 4 μg/mL; tested up to 40 μg/mL
KP1005 CTX-M-14 = assay: Tigemonam potentiation (MPC@4), strain KP1005 CTX-M-14
KP1004 KPC-2 [1] = assay: Aztreonam potentiation (MPC@4), strain KP1004 KPC-2
KP1009 CTX-M-15 = assay: Aztreonam potentiation (MPC@4), strain KP1009 CTX-M-15; conditions: minimum BLI concentration inhibiting growth with aztreonam 4 μg/mL; tested up to 40 μg/mL
AB1054 OXA-23 = assay: Meropenem potentiation (MPC@8), strain AB1054 OXA-23; type: cell-based, Acinetobacter baumannii
KP1004 KPC-2 [2] = assay: Biapenem potentiation (MPC@1), strain KP1004 KPC-2; type: cell-based; conditions: minimum BLI concentration inhibiting growth with biapenem 1 μg/mL; tested up to 40 μg/mL
Description: (§1) Biapenem was present in the test medium at 1 μg/mL. […] Table 3 summarizes the BLI potency of biapenem potentiation (MPC@1) for two strains overexpressing class A (KPC) and class D (OXA-48) carbapenemases. Biapenem MIC for each strain is also shown.

[3] = target: purified class A, C and D enzymes (β-lactamases) (Enterobacter cloacae, UniProt P05364); assay: biochemical; type: biochemical
Sequence of purified class A, C and D enzymes (β-lactamases) (Enterobacter cloacae, UniProt P05364) (P05364 21-381): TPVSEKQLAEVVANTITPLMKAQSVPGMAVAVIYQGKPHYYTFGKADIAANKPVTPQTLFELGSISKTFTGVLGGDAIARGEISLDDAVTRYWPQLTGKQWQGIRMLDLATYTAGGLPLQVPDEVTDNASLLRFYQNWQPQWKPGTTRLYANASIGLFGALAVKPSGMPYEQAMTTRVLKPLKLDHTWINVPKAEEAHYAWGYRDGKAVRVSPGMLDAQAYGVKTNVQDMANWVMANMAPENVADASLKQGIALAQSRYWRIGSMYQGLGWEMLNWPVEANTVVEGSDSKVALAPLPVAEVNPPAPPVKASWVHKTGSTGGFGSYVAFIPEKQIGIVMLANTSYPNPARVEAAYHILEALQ

[4] = target: purified class A, C and D enzymes (β-lactamases) (Escherichia coli, UniProt Q9L5C7); assay: biochemical; type: biochemical
Sequence of purified class A, C and D enzymes (β-lactamases) (Escherichia coli, UniProt Q9L5C7) (Q9L5C7 entry or part of it): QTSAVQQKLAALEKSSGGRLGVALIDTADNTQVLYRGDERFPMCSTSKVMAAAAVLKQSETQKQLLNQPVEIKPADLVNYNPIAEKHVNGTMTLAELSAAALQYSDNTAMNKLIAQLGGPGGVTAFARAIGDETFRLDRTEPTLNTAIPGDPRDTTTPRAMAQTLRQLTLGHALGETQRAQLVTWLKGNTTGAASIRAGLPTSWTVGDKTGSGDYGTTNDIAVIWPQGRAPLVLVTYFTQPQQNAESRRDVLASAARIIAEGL

[5] = target: T1, purified class A, C and D enzymes (β-lactamases) (Pseudomonas aeruginosa, UniProt P24735); assay: biochemical; type: biochemical
T1 construct: rows headed: Ki (Pa-AmpC, NCF), uM; other: purified Pa-AmpC; nitrocefin (NCF) as reporter substrate
T1 sequence (P24735 whole entry): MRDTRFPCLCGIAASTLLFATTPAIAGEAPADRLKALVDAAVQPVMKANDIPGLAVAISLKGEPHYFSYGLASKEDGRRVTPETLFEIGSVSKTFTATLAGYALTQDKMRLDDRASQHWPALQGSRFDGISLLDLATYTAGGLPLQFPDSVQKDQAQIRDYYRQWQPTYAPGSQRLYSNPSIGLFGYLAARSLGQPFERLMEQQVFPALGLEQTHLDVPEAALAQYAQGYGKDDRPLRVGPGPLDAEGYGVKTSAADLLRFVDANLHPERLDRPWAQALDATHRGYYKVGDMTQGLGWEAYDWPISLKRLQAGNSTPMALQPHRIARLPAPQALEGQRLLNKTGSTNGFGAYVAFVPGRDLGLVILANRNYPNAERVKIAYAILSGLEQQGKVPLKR

[6] = target: purified class A, C and D enzymes (β-lactamases) (Klebsiella pneumoniae, UniProt Q9F663); assay: biochemical; type: biochemical
[7] = target: purified class A, C and D enzymes (β-lactamases) (Klebsiella pneumoniae, UniProt Q6XEC0); assay: biochemical; type: biochemical
biochemical = type: biochemical
[8] = target: T2, purified class A, C and D enzymes (β-lactamases) (UniProt P0AD64, L31Q/G234S/E235K, species not given); assay: biochemical; type: biochemical; conditions: read-out: Ki (SHV-12, NCF); purified SHV-12; nitrocefin (NCF) as reporter substrate
T2 construct: Ki (SHV-12, NCF), uM; other: purified SHV-12; nitrocefin (NCF) as reporter substrate
T2 sequence (P0AD64 1-286 L31Q/G234S/E235K): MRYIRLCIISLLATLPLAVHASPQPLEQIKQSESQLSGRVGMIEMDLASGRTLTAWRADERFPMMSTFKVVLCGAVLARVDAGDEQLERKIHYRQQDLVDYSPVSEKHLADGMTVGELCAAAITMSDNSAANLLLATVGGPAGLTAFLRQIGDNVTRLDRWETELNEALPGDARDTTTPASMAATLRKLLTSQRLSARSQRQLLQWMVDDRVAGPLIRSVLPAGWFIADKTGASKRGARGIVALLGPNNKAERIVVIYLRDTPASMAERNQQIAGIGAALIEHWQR

ECL1002 = assay: Aztreonam potentiation (MPC@4), strain ECL1002; conditions: minimum BLI concentration inhibiting growth with aztreonam 4 μg/mL; tested up to 40 μg/mL
PAM1154/KPC-2 = assay: Biapenem potentiation MPC64 in PAM1154/KPC-2 (efflux deficient, lacks MexAB-OprM); type: cell-based, Pseudomonas aeruginosa
Description: (§2) Efflux of BLIs from Pseudomonas aeruginosa by the MexAB-OprM efflux pump was also evaluated. The plasmid expressing the gene encoding KPC-2 was introduced into two strains of P. aeruginosa, PAM1032 and PAM 1154 that overexpressed or lacked MexAB-OprM, respectively. […] Potency of BLIs to potentiate biapenem in these strains was determined.

AB1053 OXA-72 = assay: Meropenem potentiation (MPC@8), strain AB1053 OXA-72; type: cell-based, Acinetobacter baumannii; conditions: minimum BLI concentration inhibiting growth with meropenem 8 μg/mL; tested up to 20 μg/mL
ec302 TEM-10 = assay: Aztreonam potentiation (MPC@4), strain ec302 TEM-10; conditions: minimum BLI concentration inhibiting growth with aztreonam 4 μg/mL; tested up to 40 μg/mL
EC1010 CMY-6 = assay: Aztreonam potentiation (MPC@4), strain EC1010 CMY-6
PAM1032/KPC-2 = assay: Biapenem potentiation MPC64 in PAM1032/KPC-2 (efflux proficient, overexpresses MexAB-OprM); type: cell-based, Pseudomonas aeruginosa
Description: as §2

KP1010 SHV-12 = assay: Aztreonam potentiation (MPC@4), strain KP1010 SHV-12
KP1086 OXA-48 = assay: Biapenem potentiation (MPC@1), strain KP1086 OXA-48; type: cell-based; conditions: minimum BLI concentration inhibiting growth with biapenem 1 μg/mL; tested up to 40 μg/mL
Description: as §1

**Q.** With O=C([O-])c1nccc2c1O[B-](O)(O)CC2.[Na+].[Na+] [Compound 6, DISODIUM; 4,4-DIHYDROXY-5-OXA-8-AZA-4-BORANUIDABICYCLO[4.4.0]DECA-1(6),7,9-TRIENE-7-CARBOXYLATE] as the compound, how does the “AZT MPC4 SHV-5 ec308” value (ec308 SHV-5) read?
**A.** Its value is “Y (Y = 5 μg/mL < MPC@4 ≤ 20 μg/mL)”.

**Q.** And the “TIG MPC4 CTX-M-14 KP1005” value (KP1005 CTX-M-14)?
**A.** The value was “Y (key: X = MPC@4 ≤ 5 μg/mL; Y = 5 μg/mL < MPC@4 ≤ 20 μg/mL; Z = MPC@4 > 20 μg/mL)”.

**Q.** What about the “AZT MPC4 KPC-2 KP1004” value (KP1004 KPC-2 [1]) of the same compound?
**A.** Its value is “X (key: X = MPC@4 ≤ 5 μg/mL; Y = 5 μg/mL < MPC@4 ≤ 20 μg/mL; Z = MPC@4 > 20 μg/mL)”.

**Q.** And the “AZT MPC4 CTX-M-15 KP1009” value (KP1009 CTX-M-15)?
**A.** Its value is “X (X = MPC@4 ≤ 5 μg/mL)”.

**Q.** What about the “MPM MPC8 AB1054 OXA-23” value (AB1054 OXA-23) of the same compound?
**A.** The value was “X (key: X = MPC@1 ≤ 5 μg/mL; Y = 5 μg/mL < MPC@1 ≤ 20 μg/mL; Z = MPC@1 > 20 μg/mL)”.

**Q.** And the “BPM MPC1 KP1004 KPC-2” value (KP1004 KPC-2 [2])?
**A.** Its value is “X (X = MPC@1 ≤ 5 μg/mL)”.

**Q.** And the “Ki (P99, NCF), uM” value [3]?
**A.** The value was “X (key: X = Ki ≤ 0.1 μM; Y = 0.1 μM < Ki ≤ 1 μM; Z = Ki > 1 μM)”.

**Q.** And the “Ki (CTX-M-14, NCF), uM” value [4]?
**A.** Its value is “X (key: X = Ki ≤ 0.1 μM; Y = 0.1 μM < Ki ≤ 1 μM; Z = Ki > 1 μM)”.

**Q.** What about the Ki [5] of the same compound?
**A.** The Ki was under 100 nM.

**Q.** What about the “Ki (KPC-2, NCF), uM” value [6] of the same compound?
**A.** Its value is “X (key: X = Ki ≤ 0.1 μM; Y = 0.1 μM < Ki ≤ 1 μM; Z = Ki > 1 μM)”.

**Q.** What about the “Ki (OXA-48, NCF), uM” value [7] of the same compound?
**A.** The value was “X (key: X = Ki ≤ 0.1 μM; Y = 0.1 μM < Ki ≤ 1 μM; Z = Ki > 1 μM)”.

**Q.** And the Ki (biochemical)?
**A.** Its Ki is under 100 nM.

**Q.** What about the Ki [8] of the same compound?
**A.** The Ki was under 100 nM.

**Q.** What about the “AZT MPC4 ECL1002” value (ECL1002) of the same compound?
**A.** Its value is “X (X = MPC@4 ≤ 5 μg/mL)”.

**Q.** And the “PAM1154/KPC-2 Biapenem MPC64” value (PAM1154/KPC-2)?
**A.** Its value is 0.3.

**Q.** What about the “MPM MPC8 AB1053 OXA-72” value (AB1053 OXA-72) of the same compound?
**A.** The value was “X (X = MPC@1 ≤ 5 μg/mL)”.

**Q.** And the “AZT MPC4 TEM-10 ec302” value (ec302 TEM-10)?
**A.** The value was “X (X = MPC@4 ≤ 5 μg/mL)”.

**Q.** And the “AZT MPC4 CMY-6 EC1010” value (EC1010 CMY-6)?
**A.** Its value is “X (key: X = MPC@4 ≤ 5 μg/mL; Y = 5 μg/mL < MPC@4 ≤ 20 μg/mL; Z = MPC@4 > 20 μg/mL)”.

**Q.** What about the “PAM1032/KPC-2 Biapenem MPC64” value (PAM1032/KPC-2) of the same compound?
**A.** Its value is 5.

**Q.** What about the “AZT MPC4 SHV-12 KP1010” value (KP1010 SHV-12) of the same compound?
**A.** Its value is “X (key: X = MPC@4 ≤ 5 μg/mL; Y = 5 μg/mL < MPC@4 ≤ 20 μg/mL; Z = MPC@4 > 20 μg/mL)”.

**Q.** And the “BPM MPC1 OXA-48 KP1086” value (KP1086 OXA-48)?
**A.** Its value is “X (X = MPC@1 ≤ 5 μg/mL)”.
